Measured values published in PubChem BioAssay AID212 (DTP/NCI, 2004).
Where “and” joins values, the source holds several entries; their conditions need not be identical. Equal entries are not always repeated. Results filed as inconclusive are left out.

Test system: BDF1 mice, colon carcinoma 38 sc, T/C %
Assay: NCI In Vivo Anticancer Drug Screen. Data for tumor model Colon Carcinoma 38 (subcutaneous) in B6D2F1 (BDF1) mice
Settings: endpoint: median tumor weight (est.), higher = larger tumour
In short: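 Compound antitumor activity was assessed in mice carrying transplantable tumors. Survival or tumor size was recorded, and each value is the treated-group measurement divided by that of the vehicle-treated control group.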

[1] = dose: 25.0 mg/kg/injection, schedule: Q07DX002 (ip), vehicle: saline
[2] = dose: 50.0 mg/kg/injection, schedule: Q07DX002 (ip), vehicle: saline
[3] = dose: 100.0 mg/kg/injection, schedule: Q07DX002 (ip), vehicle: saline
[4] = dose: 200.0 mg/kg/injection, schedule: Q07DX002 (ip), vehicle: saline
[5] = dose: 12.5 mg/kg/injection, schedule: Q07DX002 (ip), vehicle: saline with Tween-80
[6] = dose: 50.0 mg/kg/injection, schedule: Q07DX002 (ip), vehicle: saline with Tween-80
[7] = dose: 100.0 mg/kg/injection, schedule: Q07DX002 (ip), vehicle: saline with Tween-80
[8] = dose: 200.0 mg/kg/injection, schedule: Q07DX002 (ip), vehicle: saline with Tween-80
[9] = dose: 400.0 mg/kg/injection, schedule: Q07DX002 (ip), vehicle: saline with Tween-80
[10] = dose: 100.0 mg/kg/injection, schedule: Q07DX003 (ip), vehicle: saline
[11] = dose: 200.0 mg/kg/injection, schedule: Q07DX003 (ip), vehicle: saline
[12] = dose: 400.0 mg/kg/injection, schedule: Q07DX002 (ip), vehicle: saline
[13] = dose: 400.0 mg/kg/injection, schedule: Q07DX003 (ip), vehicle: saline
[14] = dose: 800.0 mg/kg/injection, schedule: Q07DX002 (ip), vehicle: saline
[15] = dose: 6.25 mg/kg/injection, schedule: Q07DX002 (ip), vehicle: Klucel (hydroxypropylcellulose) (HPC)
[16] = dose: 50.0 mg/kg/injection, schedule: Q07DX002 (ip), vehicle: Klucel (hydroxypropylcellulose) (HPC)
[17] = dose: 100.0 mg/kg/injection, schedule: Q07DX002 (ip), vehicle: Klucel (hydroxypropylcellulose) (HPC)

In the case of `CN(C)[C@@H]1C(=O)C(C(N)=O)=C(O)[C@@]2(O)C(=O)C3=C(O)c4c(O)ccc(Cl)c4[C@@](C)(O)[C@H]3C[C@@H]12`, the T/C [1] is reported as 182 % of control, the T/C (dose: 25.0 mg/kg/injection, schedule: Q07DX002 (ip), vehicle: suspension in saline) is reported as 82 % of control and the T/C [2] is reported as 188 % of control. For the same molecule, the T/C (dose: 50.0 mg/kg/injection, schedule: Q07DX002 (ip), vehicle: suspension in saline) was 119 % of control, the T/C [3] was 117 % of control and the T/C (dose: 100.0 mg/kg/injection, schedule: Q07DX002 (ip), vehicle: suspension in saline) was 80 % of control. For the same molecule, the T/C [4] was 93 % of control, the T/C (dose: 200.0 mg/kg/injection, schedule: Q07DX002 (ip), vehicle: suspension in saline) was 93 % of control and the T/C (dose: 400.0 mg/kg/injection, schedule: Q07DX002 (ip), vehicle: suspension in saline) was 65 % of control.

`O=C(Nc1nncs1)c1ccncc1` was tested, and the T/C [5] was 93 % of control and 98 % of control, the T/C [6] was 91 % of control and 96 % of control and the T/C [7] was 102 % of control. The T/C [8] was 81 % of control and the T/C [9] was 69 % of control and 93 % of control.

`O=C1NC(O)CCN1C1OC(CO)C(O)C1O` (configuration not stated) was tested, and the T/C [3] was 153 % of control, the T/C [10] was 94 % of control and the T/C [4] was 192 % of control. The T/C [11] was 91 % of control, the T/C [12] was 89 % of control and the T/C [13] was 157 % of control. For the same molecule, the T/C [14] was 113 % of control.

With `C[C@@H](CN1CC(=O)NC(=O)C1)N1CC(=O)NC(=O)C1` the T/C [1] was 87 % of control, the T/C [2] was 95 % of control and the T/C [3] was 97 % of control. The T/C [10] was 71 % of control, the T/C [4] was 110 % of control and the T/C [11] was 71 % of control. The T/C [12] was 93 % of control, the T/C [13] was 71 % of control and the T/C [14] was 66 % of control. The T/C (dose: 800.0 mg/kg/injection, schedule: Q07DX003 (ip), vehicle: saline) was 38 % of control.

`CCC12C[N+]3([O-])CCc4c([nH]c5ccccc45)C(C(=O)OC)(c4cc5c(cc4OC)N(C)C4C(O)(C(=O)OC)C(OC(C)=O)C6(CC)C=CCN7CCC54C76)CC(C3)C1O2` (configuration not stated) was tested, and the T/C (dose: 1.25 mg/kg/injection, schedule: Q07DX002 (ip), vehicle: water) was 113 % of control, the T/C (dose: 2.5 mg/kg/injection, schedule: Q07DX002 (ip), vehicle: water) was 90 % of control and the T/C (dose: 5.0 mg/kg/injection, schedule: Q07DX002 (ip), vehicle: water) was 84 % of control. For the same molecule, the T/C (dose: 10.0 mg/kg/injection, schedule: Q07DX002 (ip), vehicle: water) was 108 % of control, the T/C (dose: 20.0 mg/kg/injection, schedule: Q07DX002 (ip), vehicle: water) was 82 % of control and the T/C (dose: 40.0 mg/kg/injection, schedule: Q07DX002 (ip), vehicle: water) was 94 % of control.

`C=C1C(=O)OC2/C=C(\C)CC(O)/C=C(/CO)CC(OC(=O)/C(C)=C/C)C12` (configuration not stated) was tested, and the T/C (dose: 7.5 mg/kg/injection, schedule: Q07DX002 (ip), vehicle: saline + alcohol) was 223 % of control, the T/C (dose: 30.0 mg/kg/injection, schedule: Q07DX002 (ip), vehicle: saline + alcohol) was 168 % of control and the T/C (dose: 60.0 mg/kg/injection, schedule: Q07DX002 (ip), vehicle: saline + alcohol) was 441 % of control.

In the case of `CC[C@](O)(C(=O)O)c1cc2n(c(=O)c1CO)Cc1cc3ccccc3nc1-2`, the T/C (dose: 6.25 mg/kg/injection, schedule: Q07DX003 (ip), vehicle: saline) is reported as 48 % of control and 62 % of control, the T/C (dose: 12.5 mg/kg/injection, schedule: Q07DX003 (ip), vehicle: saline) is reported as 38 % of control and 60 % of control and the T/C (dose: 25.0 mg/kg/injection, schedule: Q07DX003 (ip), vehicle: saline) is reported as 34 % of control and 41 % of control and 54 % of control. The T/C (dose: 50.0 mg/kg/injection, schedule: Q07DX003 (ip), vehicle: saline) was 23 % of control and 26 % of control and 45 % of control and the T/C [10] was 9 % of control.

With `CC(=O)Oc1[nH]c(=O)c2cccc3c2c1CCC3` the T/C [6] was 161 % of control, the T/C [8] was 118 % of control and the T/C [9] was 122 % of control. The T/C (dose: 1600.0 mg/kg/injection, schedule: Q07DX002 (ip), vehicle: saline with Tween-80) was 118 % of control.

For `CN(C)N=Nc1cn[nH]c1C(N)=O`, the T/C [15] was 102 % of control.

In the case of `O=c1cc(-c2ccccc2)[nH]c2c1CCCC2`, the T/C (dose: 900.0 mg/kg/injection, schedule: Q07DX002 (ip), vehicle: saline with Tween-80) is reported as 101 % of control.

In the case of `CN1CCc2c(c3ccccc3c3ccccc23)C1`, the T/C [15] is reported as 111 % of control, the T/C (dose: 12.5 mg/kg/injection, schedule: Q07DX002 (ip), vehicle: Klucel (hydroxypropylcellulose) (HPC)) is reported as 93 % of control and the T/C [16] is reported as 86 % of control. For the same molecule, the T/C [17] was 72 % of control.

With `BrC1c2cccc3cccc(c23)C1Br` (configuration not stated) the T/C [5] was 103 % of control, the T/C (dose: 25.0 mg/kg/injection, schedule: Q07DX002 (ip), vehicle: saline with Tween-80) was 117 % of control and 120 % of control and the T/C [7] was 97 % of control and 107 % of control. For the same molecule, the T/C [8] was 108 % of control and 111 % of control and the T/C [9] was 85 % of control.

`ClC(Cl)=C(Cl)Cl` was tested, and the T/C (dose: 28.0 mg/kg/injection, schedule: Q07DX002 (ip), vehicle: saline with Tween-80) was 88 % of control and 103 % of control, the T/C (dose: 50.0 mg/kg/injection, schedule: Q07DX002 (ip), vehicle: other) was 79 % of control and the T/C (dose: 56.0 mg/kg/injection, schedule: Q07DX002 (ip), vehicle: saline with Tween-80) was 79 % of control and 100 % of control. For the same molecule, the T/C (dose: 100.0 mg/kg/injection, schedule: Q07DX002 (ip), vehicle: other) was 109 % of control and 112 % of control, the T/C (dose: 112.0 mg/kg/injection, schedule: Q07DX002 (ip), vehicle: saline with Tween-80) was 52 % of control and the T/C (dose: 400.0 mg/kg/injection, schedule: Q07DX002 (ip), vehicle: other) was 91 % of control. For the same molecule, the T/C (dose: 800.0 mg/kg/injection, schedule: Q07DX002 (ip), vehicle: other) was 71 % of control.

In the case of `Clc1ccc(C(c2ccccc2Cl)C(Cl)Cl)cc1` (configuration not stated), the T/C (dose: 25.0 mg/kg/injection, schedule: Q07DX003 (ip), vehicle: saline with Tween-80) is reported as 39 % of control, the T/C (dose: 50.0 mg/kg/injection, schedule: Q07DX003 (ip), vehicle: saline with Tween-80) is reported as 59 % of control and the T/C (dose: 100.0 mg/kg/injection, schedule: Q07DX003 (ip), vehicle: saline with Tween-80) is reported as 80 % of control. For the same molecule, the T/C (dose: 200.0 mg/kg/injection, schedule: Q07DX003 (ip), vehicle: saline with Tween-80) was 63 % of control and the T/C (dose: 400.0 mg/kg/injection, schedule: Q07DX003 (ip), vehicle: saline with Tween-80) was 95 % of control.

In the case of `CCN(CC)CCOCc1cccc2c(=O)cc(-c3ccccc3)oc12`, the T/C [16] is reported as 66 % of control and the T/C [17] is reported as 57 % of control.

For `CC(C)=CCC/C(C)=C/COc1ccc(/C=C2/C(=O)N(O)[C@@H](C)C(=O)N2O)cc1`, the T/C (dose: 6.25 mg/kg/injection, schedule: Q07DX002 (ip), vehicle: saline) was 262 % of control, the T/C (dose: 12.5 mg/kg/injection, schedule: Q07DX002 (ip), vehicle: saline) was 202 % of control and the T/C [1] was 178 % of control. For the same molecule, the T/C [2] was 154 % of control and the T/C [3] was 154 % of control.

For `Nc1nc2c(ncn2C2OC(CO)C(O)C2O)c(=O)[nH]1.Nc1nc2c(ncn2C2OC(CO)C(O)C2O)c(=O)[nH]1.[NH2-].[NH2-].[Pt+2]` (configuration not stated), the T/C (dose: 12.5 mg/kg/injection, schedule: Q07DX002 (ip), vehicle: water) was 30 % of control, the T/C (dose: 25.0 mg/kg/injection, schedule: Q07DX002 (ip), vehicle: water) was 108 % of control and the T/C (dose: 50.0 mg/kg/injection, schedule: Q07DX002 (ip), vehicle: water) was 96 % of control. For the same molecule, the T/C (dose: 100.0 mg/kg/injection, schedule: Q07DX002 (ip), vehicle: water) was 248 % of control and the T/C (dose: 200.0 mg/kg/injection, schedule: Q07DX002 (ip), vehicle: water) was 117 % of control.

In the case of `COC1/C=C\C=C(/C)C(=O)NC2=CC(=O)C=C(C2=O)C(OC)C(C)CC(OC)C(OC)C(C)/C=C(/C)C1OC(N)=O` (configuration not stated), the T/C (dose: 1.5 mg/kg/injection, schedule: Q07DX002 (ip), vehicle: Klucel (hydroxypropylcellulose) (HPC)) is reported as 159 % of control, the T/C (dose: 6.0 mg/kg/injection, schedule: Q07DX002 (ip), vehicle: Klucel (hydroxypropylcellulose) (HPC)) is reported as 117 % of control and the T/C (dose: 12.0 mg/kg/injection, schedule: Q07DX002 (ip), vehicle: Klucel (hydroxypropylcellulose) (HPC)) is reported as 115 % of control.
